Data taken from PubChem BioAssay AID1996.
≈ marks a conversion by molar mass, not a printed value. Residues, ends and D or L forms follow the SMILES beside them. *: point of attachment. Cbz = O=C(OCc1ccccc1)*

Conditions: buffer; pH 7.4; 200.0 µM

| SMILES | solubility kinetic |
| --- | --- |
| Cc1ccc(NC(=O)COc2cccc3ccccc23)c(O)c1 | 3.8 µg/mL (≈ 12.4 µM) |
| O=Cc1cnc2ccccc2c1-c1ccccc1 | 27.8 µg/mL (≈ 119 µM) |
| O=C(Nc1ccc(N2CCCCC2)cc1)c1ccc2ccccc2n1 | < 0.2 µg/mL |
| CC(C)C(NC(=O)c1ccccc1)C(=O)N1CCCCCC1 (stereo not given) | > 45.4 µg/mL |
| NC(=Nc1ccc(Br)cc1)c1ccccc1 | > 41.3 µg/mL |
| O=C(COC(=O)c1ccc(Br)c(S(=O)(=O)N2CCOCC2)c1)NCCc1ccccc1 | 24.1 µg/mL (≈ 47.1 µM) |
| CCC(CCC(=O)Nc1cccc([N+](=O)[O-])c1)C(=O)O (stereo not given) | > 42 µg/mL |
| Cc1ccc(S(=O)(=O)/N=C(/Nc2nc(C)cs2)c2ccccc2)cc1 | 8 µg/mL (≈ 21.5 µM) |
| O=CN(c1ccccc1)c1ccc2ccccc2c1 | 14.2 µg/mL (≈ 57.4 µM) |
| CCOc1ccc(N(C)S(=O)(=O)c2ccc(C)c(C(=O)N3CCN(Cc4ccc5c(c4)OCO5)CC3)c2)cc1 | 15.2 µg/mL (≈ 27.6 µM) |
| COC(=O)c1cc(CNC(=O)CC(C)c2ccccc2)ccc1OC (stereo not given) | > 51.2 µg/mL |
| Cc1cc(C)c2nc(/N=C(\N)NC(=O)c3ccccc3)nc(C)c2c1 | 1.3 µg/mL (≈ 3.9 µM) |
| COc1cccc(NC(=O)/C=C/c2ccco2)c1 | > 36.5 µg/mL |
| Cc1c[nH]c(=O)c([N+](=O)[O-])c1 | > 23.1 µg/mL |
| C=CCn1c(COc2ccccc2)nc2ccccc21 | 31.9 µg/mL (≈ 121 µM) |
| CN(C)S(=O)(=O)Nc1ccccc1F | 30.2 µg/mL (≈ 138 µM) |
| CC(=O)N(CCc1cccc(C)c1)Cc1cc2cc(C)ccc2[nH]c1=O | 1.1 µg/mL (≈ 3.16 µM) |
| COc1cc(Cl)c(C)cc1NC(=O)CC1CCCC1 | 2 µg/mL (≈ 7.1 µM) |
| Cc1ccc(C(=O)NCC(=O)Nc2ncccc2C)s1 | > 43.4 µg/mL |
| COc1ccc(CC(=O)NCC(=O)NC(Cc2ccccc2)C(=O)O)cc1 (stereo not given) | > 55.6 µg/mL |
| CSCC(=O)N1CCC(CCC(=O)NC2CC2)CC1 | > 42.7 µg/mL |
| Cc1sc(NC(=O)c2cccnc2)nc1-c1ccccc1 | 1.1 µg/mL (≈ 3.72 µM) |
| C#CCSc1nc(=O)c2cccnc2n1-c1ccc(C)cc1 | > 46.1 µg/mL |
| O=C(NCCCN1CCCC1=O)c1ccc(Cl)c(Cl)c1 | 45.9 µg/mL (≈ 146 µM) |
| O=C(CS(=O)(=O)c1c[nH]c2ccccc12)N1CCCCCC1 | > 48.1 µg/mL |

| SMILES | solubility kinetic |
| --- | --- |
| CCOC(=O)C1=C(CCl)NC(=O)NC1c1ccc2c(c1)OCO2 (stereo not given) | > 50.8 µg/mL |
| CCOC(=O)CCn1c(=S)n(CCC(=O)OCC)c2ccccc21 | 49.5 µg/mL (≈ 141 µM) |
| CC(OC(=O)COc1ccc(C#N)cc1)C(=O)c1ccccc1 (stereo not given) | > 46.4 µg/mL |
| Cc1nc(-c2ccc(NC(=O)c3ccc(Br)o3)cc2)cs1 | < 0.4 µg/mL |
| CC(C)Oc1ccc(S(=O)(=O)N2CCOCC2)cc1NC(=O)Cc1ccsc1 | 31.8 µg/mL (≈ 74.9 µM) |
| O=C(O)c1ccccc1Nc1ccc(OC(F)F)cc1 | > 41.9 µg/mL |
| COc1ccc(S(=O)(=O)N2CCCc3ccccc32)cc1OC | 28.4 µg/mL (≈ 85.2 µM) |
| COc1cccc(CC(=O)Nc2nc3c(s2)C(=O)CC(C)(C)C3)c1 | 1.8 µg/mL (≈ 5.23 µM) |
| Cc1cc(-c2nc(-c3ccncc3)no2)ccc1[N+](=O)[O-] | 1.8 µg/mL (≈ 6.38 µM) |
| O=[N+]([O-])c1cc2c(cc1C=Nc1ccccc1)OCO2 | 38.1 µg/mL (≈ 141 µM) |
| CC1CCCN(C(=O)CSc2nnc(-c3ccncc3)n2C)C1 (stereo not given) | > 49.7 µg/mL |
| O=C(Nc1ccc(F)cc1)OC1CN2CCC1CC2 (stereo not given) | > 39.6 µg/mL |
| Cc1ccc(S(=O)(=O)N(CCO)Cc2ccccc2)cc1 | > 45.8 µg/mL |
| COC(=O)c1c(C)oc(C)c1S(=O)(=O)N1CCCCC1 | 34.8 µg/mL (≈ 115 µM) |
| Nc1ccc(S(=O)(=O)NC2=NCCCCC2)cc1N | > 42.4 µg/mL |
| O=C1CC(N2CCSCC2)C(=O)N1c1cccc(Cl)c1 (stereo not given) | > 46.6 µg/mL |
| CCOc1ncccc1C(=O)OCC(=O)NCc1ccc(C(=O)OC)cc1 | > 55.9 µg/mL |
| COc1ccccc1NC(=S)NC(C)C(c1cccs1)N1CCOCC1 (stereo not given) | > 58.7 µg/mL |
| COc1cc2sc(C)nc2c2ccccc12 | 2.9 µg/mL (≈ 12.6 µM) |
| COc1ccc(OC)c(N/C(=N/c2nc(C)cc(C)n2)NC(C)=O)c1 | 0.6 µg/mL (≈ 1.75 µM) |
| COc1cccc(CN(C)C(=S)Nc2cccc(C)c2)c1 | 40.4 µg/mL (≈ 134 µM) |
| Cc1ccccc1OCC(=O)NCCCNC(=O)c1cccnc1 | > 49.1 µg/mL |
| CSc1ccc(C(=O)C2CCCN(C)C2)cc1 (stereo not given) | > 37.4 µg/mL |
| Cc1cccn2cc(-c3ccc(Cl)cc3)nc12 | 2.7 µg/mL (≈ 11.1 µM) |
| Cc1ccnc(NS(=O)(=O)c2ccc(NS(C)(=O)=O)cc2)n1 | 47.8 µg/mL (≈ 140 µM) |

| SMILES | solubility kinetic |
| --- | --- |
| Cc1cc(C(=O)CCl)c(C)n1-c1ccon1 | 33.7 µg/mL (≈ 141 µM) |
| Cc1ccc(C(=O)NCCc2c[nH]c3ccccc23)s1 | > 42.7 µg/mL |
| CC(=O)Cn1ncc(N2CCOCC2)c(Cl)c1=O | > 40.8 µg/mL |
| CCCN1C(=O)c2ccccc2NC1c1ccc(Cl)c(Cl)c1 (stereo not given) | 11.9 µg/mL (≈ 35.5 µM) |
| O=C(Nc1ccc2c(c1)OCO2)C1CCCCC1 | > 37.1 µg/mL |
| CCn1c2ccccc2c2cc(C#N)c(N)nc21 | 0.7 µg/mL (≈ 2.96 µM) |
| CCCC(=O)Nc1ccc2c(c1)nc1n2CCN(CCOC)C1 | > 47.5 µg/mL |
| Cc1ccccc1CN(C)C1CCN(C)CC1 | 31.7 µg/mL (≈ 136 µM) |
| C/C(=N\NC(=O)C1CC1)c1ccc(C)c(C)c1 | > 34.5 µg/mL |
| CCc1cccc2c1NC(=O)C2(O)N1CCCC(C)C1 (stereo not given) | 38.5 µg/mL (≈ 140 µM) |
| CC(C)=CC(=O)OCC(=O)Nc1cc(C)ccc1C | 15 µg/mL (≈ 57.4 µM) |
| Cc1ccc(C(=O)OCC(=O)N2CC(C)OC(C)C2)cc1 (stereo not given) | > 43.7 µg/mL |
| Cc1c(-c2nc3ccccc3[nH]2)cnn1C | > 31.8 µg/mL |
| CC(=O)c1ccc(NC(=O)CCOc2cc(C)ccc2C)cc1 | 5 µg/mL (≈ 16.1 µM) |
| CCSc1nsc(NC(=O)Nc2ccccc2OC)n1 | 2.6 µg/mL (≈ 8.38 µM) |
| O=C(OCc1ccccc1)c1cccnc1Cl | 32.5 µg/mL (≈ 131 µM) |
| O=C(NCc1ccc2c(c1)OCO2)C1CCCCC1 | > 39.2 µg/mL |
| COc1ccc(NC(C)=O)cc1CNC(=O)CN1CCOCC1 | > 48.2 µg/mL |
| Cc1c(Cl)cccc1NC(=O)Cc1cccs1 | 11.1 µg/mL (≈ 41.8 µM) |
| Cc1nc(N)[nH]c(=O)c1CC(=O)OCCCl | 30.4 µg/mL (≈ 124 µM) |
| O=C(Cc1ccc(F)cc1)N1CCN(c2ccc([N+](=O)[O-])cc2)CC1 | 3.5 µg/mL (≈ 10.2 µM) |
| Cc1ccccc1C(=O)NC(=S)NCc1cccnc1 | > 42.8 µg/mL |
| Cc1cccc(NC(=O)c2ccc(S(=O)(=O)N3CCCC3)cc2)c1C | 2 µg/mL (≈ 5.58 µM) |
| CC(=O)c1ccccc1NC(=O)CSc1n[nH]c(=O)n1C1CC1 | > 49.9 µg/mL |
| O=C(NCc1ccc2c(c1)OCO2)c1ccc(Br)o1 | > 48.6 µg/mL |

Other lines, results leading:

| solubility kinetic | SMILES |
| --- | --- |
| > 46.6 µg/mL | O=C(CCNC(=O)c1ccccc1Cl)NCC1CCCO1 (stereo not given) |
| 1.1 µg/mL (≈ 3.25 µM) | c1cncc(-c2nc(N3CCOCC3)c3c4c(sc3n2)CCC4)c1 |
| > 58.7 µg/mL | COC(=O)C(C)NC(=O)C1CCCN1C(=O)CNC(=O)OCc1ccccc1 (stereo not drawn) (Cbz-Gly-Pro-Ala-OMe; configuration not given here) |
| > 52.9 µg/mL | CC(C)CC(C(=O)Nc1cccc(O)c1)N1C(=O)c2ccccc2C1=O (stereo not given) |
| > 49.3 µg/mL | CSc1ccccc1NC(=O)CCn1c(=O)oc2ccccc21 |
| > 32.2 µg/mL | CN(C)C(=S)Nc1ccc(Cl)cc1 |
| > 52.9 µg/mL | Cc1ccc(S(=O)(=O)NCCC(=O)NC2CCCCCC2)cc1C |
| 34.7 µg/mL (≈ 140 µM) | Cc1noc(C)c1C(=O)NCc1ccccc1F |
| 50.4 µg/mL (≈ 144 µM) | Cc1ccc(-c2ccc(CCC(=O)O)n2-c2cccc(C(=O)O)c2)cc1 |
| 6.9 µg/mL (≈ 22.2 µM) | Cc1[nH]c2ccccc2c1C(=O)COC(=O)c1nccnc1N |
| > 56.2 µg/mL | O=C(O)c1ccccc1-c1ccccc1C(=O)Nc1nc2ccccc2s1 |
| > 38.9 µg/mL | CCNC(=O)CCc1nc(-c2ccc(C)cc2)no1 |
| 5.2 µg/mL (≈ 18.5 µM) | CCOc1ccccc1CNc1nc2ccccc2n1C |
| 6.7 µg/mL (≈ 22.6 µM) | Cc1nc2ccccc2cc1C(=O)Nc1ccccc1Cl |
| > 41 µg/mL | O=C(Nc1ccccc1-c1ccccc1)c1ccccc1 |
| 32.7 µg/mL (≈ 129 µM) | CCNC(=O)c1ccccc1CCc1ccccc1 |
| > 43 µg/mL | CCn1cnc2scc(-c3ccc(OC)cc3)c2c1=O |
| 6.5 µg/mL (≈ 27.7 µM) | Oc1ccc(Cl)cc1CNc1ccccn1 |
| 10.6 µg/mL (≈ 23.5 µM) | Cc1ccc(NC(=O)CSc2nc(N)cc(=O)[nH]2)cc1S(=O)(=O)N1CCCCCC1 |
| 2.8 µg/mL (≈ 5.7 µM) | CCN(c1ccccc1)S(=O)(=O)c1ccc(C(=O)NCC(=O)Nc2ccc(F)c(F)c2F)cc1 |
| 34.3 µg/mL (≈ 125 µM) | Cc1cc2oc(=O)cc(Cn3ccnc3)c2cc1Cl |
| > 43.1 µg/mL | O=Cc1ccc(C(=O)OCC(=O)NCc2ccco2)cc1 |
| > 56.1 µg/mL | CN(C(=O)CSc1nc2ccc(Cl)cc2[nH]1)C1CCS(=O)(=O)C1 (stereo not given) |

| solubility kinetic | SMILES |
| --- | --- |
| > 47.5 µg/mL | CCN1CCc2c(OCC(=O)N3CCCCC3)cccc2C1=O |
| 0.6 µg/mL (≈ 2.35 µM) | CCCCOc1ncnc2c1[nH]c1ccc(C)cc12 |
| > 53.6 µg/mL | CN(CC(=O)Nc1c(Cl)cccc1Cl)C(=O)Cc1ccsc1 |
| 38.4 µg/mL (≈ 121 µM) | COc1ccccc1NC(=O)CCSc1nc(C)cc(C)n1 |
| 13 µg/mL (≈ 37.4 µM) | Cc1nc(NC(=O)c2c(-c3ccccc3Cl)noc2C)sc1C |
| 0.5 µg/mL (≈ 1.57 µM) | O=C(Nc1ccccn1)c1ccc(C(=O)Nc2ccccn2)cc1 |
| > 49.7 µg/mL | CC1CC(CC(=O)NNc2nc(-c3ccccc3)cs2)C(=O)O1 (stereo not given) |
| 1.4 µg/mL (≈ 4.03 µM) | O=C(c1ccc(F)cc1F)C1CCN(c2ccc([N+](=O)[O-])cn2)CC1 |
| 40.2 µg/mL (≈ 124 µM) | CC(C(=O)NC(C)(C)C)N1C(=O)c2cccc3cccc(c23)C1=O (stereo not given) |
| 45.5 µg/mL (≈ 139 µM) | COC(=O)c1ccc(CNC(=O)c2ccc3c(c2)OCCO3)cc1 |
| 39.6 µg/mL (≈ 101 µM) | O=C(Cc1c(F)cccc1Cl)OCC(=O)N1CCN(c2ccccc2)CC1 |
| 1.3 µg/mL (≈ 6.66 µM) | ON=C1c2ccccc2-c2ccccc21 |
| 42.3 µg/mL (≈ 131 µM) | Cn1c(=O)[nH]c(=O)c2c1[nH]c(=S)n2Cc1ccc(Cl)cc1 |
| > 48.8 µg/mL | CC(OC(=O)c1ccccc1Oc1ccccc1)C(=O)NC1CC1 (stereo not given) |
| 0.5 µg/mL (≈ 1.59 µM) | O=C1/C(=C/c2ccccn2)SC(=S)N1c1ccc(O)cc1 |
| > 53 µg/mL | COc1ccc(CCNC(=O)CCc2nc3ccccc3[nH]2)cc1OC |
| 1.5 µg/mL (≈ 4.61 µM) | O=C(Nc1cccc([N+](=O)[O-])c1)c1ccc(N2CCCC2=O)cc1 |
| 31.8 µg/mL | Cc1ccc(CN2CCC(N3CC(C)OC(C)C3)CC2)cc1.Cl (stereo not given) |
| > 57.2 µg/mL | O=C(COC(=O)CNC(=O)C1CCCCC1)Nc1ccc(F)c([N+](=O)[O-])c1 |
| 1.2 µg/mL (≈ 3.24 µM) | CCOC(=O)c1ccc(NC(=S)N2CCN(c3ccccn3)CC2)cc1 |
| > 57.7 µg/mL | Cn1c(C(=O)O)ccc1S(=O)(=O)N(Cc1ccccc1)Cc1ccccc1 |
| 43.4 µg/mL (≈ 135 µM) | O=C(CCNC(=O)c1ccccc1)NC1CCCc2ccccc21 (stereo not given) |
